# Measurements as given in ChEMBL document CHEMBL1201862, “PubChem BioAssay data set” (2004).
# The source made the active and inactive calls.
# Legend:
# [1] = biological target: Luciferin 4-monooxygenase (Photinus pyralis, UniProt P08659); experiment: Counter Screen for Luciferase-based Assay Positives. [Related pubchem assays: 620, 618, 411 ]
# HT-1080 = experiment: cytotoxicity in HT1080 fibrosarcoma cells, cell-based, fluorescence readout (AID 620); type: functional; conditions: Homo sapiens
# [2] = biological target: Glucose-6-phosphate 1-dehydrogenase (Homo sapiens, UniProt P11413); experiment: human G6PD enzyme inhibitors, dose response, selectivity assay for P. falciparum G6PD inhibitor project, biochemical, fluorescence (AID 504792); type: functional
# Chain of Glucose-6-phosphate 1-dehydrogenase (P11413 whole entry): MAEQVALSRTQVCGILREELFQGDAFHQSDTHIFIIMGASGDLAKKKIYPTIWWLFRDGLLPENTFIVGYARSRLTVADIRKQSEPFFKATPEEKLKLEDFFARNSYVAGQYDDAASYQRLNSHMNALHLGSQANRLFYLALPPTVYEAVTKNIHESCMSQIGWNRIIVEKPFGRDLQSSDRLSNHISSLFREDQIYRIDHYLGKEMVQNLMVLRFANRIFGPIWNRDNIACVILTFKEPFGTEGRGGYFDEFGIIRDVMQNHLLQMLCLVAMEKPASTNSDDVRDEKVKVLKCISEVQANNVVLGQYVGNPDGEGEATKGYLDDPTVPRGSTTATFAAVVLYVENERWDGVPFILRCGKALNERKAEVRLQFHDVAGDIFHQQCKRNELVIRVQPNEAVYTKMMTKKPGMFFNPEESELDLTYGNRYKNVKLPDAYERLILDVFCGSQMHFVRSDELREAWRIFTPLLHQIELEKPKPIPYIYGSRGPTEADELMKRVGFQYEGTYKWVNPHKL
# [3] = Luminescence Cell-Based Dose Retest to Confirm Inhibitors of Cancer Stem Cells. [Related pubchem assays (depositor defined):AID2717, AID2721]; type: functional; conditions: Homo sapiens
# Protein Wnt-3a = Protein Wnt-3a (Mus musculus, UniProt P27467); experiment: Wnt3a-driven reporter signaling inhibition, dose response, selectivity assay for Gli-SUFU antagonist project, Wnt-LIGHT cells, luminescence (AID 651570); type: functional; conditions: read-out: IC50_Mean;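 further: Wnt-LIGHT reporter cells stimulated with conditioned medium from Wnt3a-producing cells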
# Chain of Protein Wnt-3a (P27467 whole entry): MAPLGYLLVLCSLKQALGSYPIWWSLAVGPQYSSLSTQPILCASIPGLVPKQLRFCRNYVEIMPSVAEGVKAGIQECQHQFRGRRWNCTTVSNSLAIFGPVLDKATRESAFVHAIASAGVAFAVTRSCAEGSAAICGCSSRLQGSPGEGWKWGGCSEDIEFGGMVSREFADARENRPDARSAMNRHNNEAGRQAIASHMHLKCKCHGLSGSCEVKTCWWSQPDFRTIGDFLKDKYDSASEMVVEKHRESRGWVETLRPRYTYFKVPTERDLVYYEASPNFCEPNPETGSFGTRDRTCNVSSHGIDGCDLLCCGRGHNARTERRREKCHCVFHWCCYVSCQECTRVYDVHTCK
# HEK293 = experiment: inhibitors of LMP1-driven NF-kB reporter, dose response, cell-based, HEK293, luciferase, cherry-pick (AID 588343); type: functional; conditions: Homo sapiens
# [4] = inhibitors of intracellular T. cruzi replication, confirmation, NIH3T3 host cells, beta-gal luminescence (AID 2044); type: functional, cell-based;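 further: intracellular parasites grown in NIH/3T3 mouse fibroblasts as host cells; luminescent beta-galactosidase reporter signal from transgenic T. cruzi replicating inside host cells; inhibitors lower the luminescence signal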
# [5] = cytotoxicity toward NIH3T3 fibroblasts, dose response, counter-screen, cell-based, ATP luminescence, mouse fibroblasts (AID 2010); type: functional;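 further: cells exposed to compound for about 90 hours before reading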
# [6] = Shn3 3'UTR reporter inhibitors, dose response, cell-based, Clone20 osteoblasts, firefly luciferase, cherry-picked (AID 624132); type: functional;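 further: firefly luciferase luminescence from reporter carrying the Shn3 3'UTR in osteoblasts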
# [7] = HepG2 cell cytotoxicity, dose response, cytotoxicity control for Shn3 inhibitor project, CellTiter-Glo, cherry-picked (AID 624134); type: functional, cell-based
# [8] = control 3'UTR Renilla luciferase suppression, dose response, counter-screen for Shn3 inhibitor project, cell-based, Clone20-Shn3RL, cherry-picked (AID 624133); type: functional
# Cysteine protease ATG4B = biological target: T1, Cysteine protease ATG4B (Homo sapiens, UniProt Q9Y4P1); type: functional;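 further: Fluorescence-based dose-response confirmation assay measuring inhibition of ATG4B activity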
# T1 sequence (Q9Y4P1 whole entry): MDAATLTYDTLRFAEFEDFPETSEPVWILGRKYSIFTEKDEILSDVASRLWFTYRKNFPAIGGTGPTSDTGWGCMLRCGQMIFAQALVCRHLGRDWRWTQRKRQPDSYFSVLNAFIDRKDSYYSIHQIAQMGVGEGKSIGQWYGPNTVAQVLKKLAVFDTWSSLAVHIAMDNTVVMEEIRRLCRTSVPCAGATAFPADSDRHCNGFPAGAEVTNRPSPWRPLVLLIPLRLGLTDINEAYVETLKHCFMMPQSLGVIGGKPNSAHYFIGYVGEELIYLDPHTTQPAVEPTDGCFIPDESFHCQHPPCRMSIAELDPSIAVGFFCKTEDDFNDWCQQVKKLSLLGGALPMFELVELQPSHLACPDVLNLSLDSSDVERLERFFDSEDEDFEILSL
# Phospholipase A2 = Phospholipase A2 (Homo sapiens, UniProt P04054); type: functional;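 further: confirmatory dose-response counterscreen on phospholipase A2, testing hits that came from an ultra-high-throughput screen for ATG4B inhibitors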
# Chain of Phospholipase A2 (P04054 whole entry): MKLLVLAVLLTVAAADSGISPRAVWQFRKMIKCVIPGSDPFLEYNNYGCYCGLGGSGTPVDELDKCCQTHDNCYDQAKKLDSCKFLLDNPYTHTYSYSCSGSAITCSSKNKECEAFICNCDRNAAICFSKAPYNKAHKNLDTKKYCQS
# [9] = A Cell Based Secondary Assay To Explore Cytotoxicity of Compounds that Sensitize Mycobacterium Tuberculosis to Beta-Lactam Antibiotics.; type: functional
# [10] = biological target: T2, High affinity choline transporter 1 (Homo sapiens, UniProt Q9GZV3); experiment: CHT inhibitors, dose response, cell-based, 5-point CRC, membrane potential dye (AID 504840); type: functional
# T2 sequence (Q9GZV3 whole entry): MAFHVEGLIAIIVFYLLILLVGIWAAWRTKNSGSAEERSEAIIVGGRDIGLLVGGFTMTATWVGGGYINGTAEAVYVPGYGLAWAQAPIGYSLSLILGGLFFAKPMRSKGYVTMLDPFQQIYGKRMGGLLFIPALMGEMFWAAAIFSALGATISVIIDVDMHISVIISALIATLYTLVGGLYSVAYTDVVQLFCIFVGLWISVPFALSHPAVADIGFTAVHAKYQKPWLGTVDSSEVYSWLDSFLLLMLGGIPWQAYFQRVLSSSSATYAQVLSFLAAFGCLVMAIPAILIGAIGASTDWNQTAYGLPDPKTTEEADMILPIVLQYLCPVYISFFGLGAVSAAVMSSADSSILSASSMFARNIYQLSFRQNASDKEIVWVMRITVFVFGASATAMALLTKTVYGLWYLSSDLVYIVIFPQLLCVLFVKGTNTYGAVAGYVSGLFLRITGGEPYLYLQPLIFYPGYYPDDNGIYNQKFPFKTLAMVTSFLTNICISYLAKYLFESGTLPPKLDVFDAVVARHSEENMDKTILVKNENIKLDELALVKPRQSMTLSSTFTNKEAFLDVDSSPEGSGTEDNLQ
# [11] = HEp-2 cell cytotoxicity, dose response, cytotoxicity control for RSV inhibitor project, HTS (AID 2410); type: functional; conditions: human respiratory syncytial virus
# cells [12] = experiment: cells
# INS1 = experiment: beta cell apoptosis inhibitors, cytokine rescue, dose response, luminescence, retest (AID 449756); type: functional, cell-based; conditions: Rattus norvegicus;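 further: cell death triggered by IL-1 beta plus TNF-alpha plus IFN-gamma mixture; protective hits raise ATP signal compared with cytokine alone wells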
# [13] = biological target: T3, Heat shock factor protein 1 (Mus musculus, UniProt P38532); experiment: HSF1 potentiators in luciferase reporter cells, confirmation, cell-based, NIH3T3, luminescence, dose retest (AID 435004); type: functional;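 further: stress induced by proteasome inhibitor MG132 added 30 min after compound; luciferase reporter driven by HSF1 response element in NIH3T3 cells; actives raise luminescence as potentiators of the MG132 stress response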
# T3 sequence (P38532 whole entry): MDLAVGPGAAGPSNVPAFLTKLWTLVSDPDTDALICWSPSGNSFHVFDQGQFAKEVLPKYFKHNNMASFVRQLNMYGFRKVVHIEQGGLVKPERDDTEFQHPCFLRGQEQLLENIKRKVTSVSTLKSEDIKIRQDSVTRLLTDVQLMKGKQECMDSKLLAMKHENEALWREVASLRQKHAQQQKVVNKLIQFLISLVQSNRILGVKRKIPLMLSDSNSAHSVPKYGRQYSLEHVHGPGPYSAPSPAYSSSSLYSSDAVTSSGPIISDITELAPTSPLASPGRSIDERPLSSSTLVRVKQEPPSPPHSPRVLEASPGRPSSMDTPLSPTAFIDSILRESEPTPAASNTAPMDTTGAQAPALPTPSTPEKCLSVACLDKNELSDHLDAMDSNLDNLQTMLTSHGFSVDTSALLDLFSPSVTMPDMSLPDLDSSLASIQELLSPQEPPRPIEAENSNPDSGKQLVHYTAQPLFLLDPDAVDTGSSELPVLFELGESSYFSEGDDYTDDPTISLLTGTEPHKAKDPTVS
# [14] = intracellular Trypanosoma cruzi inhibitors in host cells – cell-based, plate reader, cherry-pick samples, set 3, dose response (AID 651818); type: functional;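 further: compounds incubated with infected cells for about four days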
# [15] = biological target: Dual specificity tyrosine-phosphorylation-regulated kinase 1A (Rattus norvegicus, UniProt Q63470); type: biochemical, Homo sapiens
# [16] = THP-1 cell cytotoxicity, dose response, cytotoxicity control for non-replicating M. tuberculosis project (AID 489025); type: functional
# [17] = HepG2 cell cytotoxicity, dose response, cytotoxicity control for non-replicating M. tuberculosis project (AID 489018); type: functional; conditions: Mycobacterium tuberculosis
# [18] = Vero E6 cell cytotoxicity, dose response, cytotoxicity control for non-replicating M. tuberculosis project, secondary assay (AID 492998); type: functional, VeroE6; conditions: Vero C1008
# cells [19] = type: functional
# [20] = growth suppression of PTEN-null colon cells, dose response, cell-based, HCT116 PTEN knockout (AID 1047); type: functional;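 further: HCT116 colon tumor cells with PTEN knocked out; cells exposed to compound for 60 hours before readout; potency for loss of cell viability measured by luminescence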
# [21] = growth suppression of beta-catenin-knockout colon cells, dose response, cell-based, HCT116, human colon tumor (AID 1045); type: functional;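 further: HCT116 colon tumor cells with beta catenin knocked out; cells exposed to compound for 60 hours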
# [22] = P. falciparum 3D7-ScDHODH growth inhibitors, dose response, SYBR Green, dry powder samples (AID 1159570); type: functional, cell-based;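 further: parasite growth measured after 72 hours of compound exposure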
# [23] = HepG2 cell cytotoxicity, dose response, cytotoxicity control, plate reader, dry powder samples (AID 1159569); type: functional, cell-based;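 further: inhibitor potency with signal falling toward the positive control level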
# [24] = P. falciparum Dd2 growth inhibitors, dose response, SYBR Green, cherry-picked samples (AID 1159567); type: functional, cell-based
# [25] = P. falciparum Dd2 growth inhibitors, dose response, SYBR Green, dry powder samples (AID 1159566); type: functional, cell-based;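 further: potency for growth inhibition with lower SYBR green DNA signal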
# [26] = HepG2 cell cytotoxicity, dose response, cytotoxicity control, cherry-picked samples (AID 1159577); type: functional, cell-based
# [27] = P. falciparum ATP4 D1247Y mutant growth inhibitors, dose response, NITD609-resistant line, SYBR Green, dry powder (AID 1159571); type: functional, cell-based;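 further: parasites synchronized at ring stage by sorbitol before testing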
# Chain of Luciferin 4-monooxygenase (P08659 whole entry): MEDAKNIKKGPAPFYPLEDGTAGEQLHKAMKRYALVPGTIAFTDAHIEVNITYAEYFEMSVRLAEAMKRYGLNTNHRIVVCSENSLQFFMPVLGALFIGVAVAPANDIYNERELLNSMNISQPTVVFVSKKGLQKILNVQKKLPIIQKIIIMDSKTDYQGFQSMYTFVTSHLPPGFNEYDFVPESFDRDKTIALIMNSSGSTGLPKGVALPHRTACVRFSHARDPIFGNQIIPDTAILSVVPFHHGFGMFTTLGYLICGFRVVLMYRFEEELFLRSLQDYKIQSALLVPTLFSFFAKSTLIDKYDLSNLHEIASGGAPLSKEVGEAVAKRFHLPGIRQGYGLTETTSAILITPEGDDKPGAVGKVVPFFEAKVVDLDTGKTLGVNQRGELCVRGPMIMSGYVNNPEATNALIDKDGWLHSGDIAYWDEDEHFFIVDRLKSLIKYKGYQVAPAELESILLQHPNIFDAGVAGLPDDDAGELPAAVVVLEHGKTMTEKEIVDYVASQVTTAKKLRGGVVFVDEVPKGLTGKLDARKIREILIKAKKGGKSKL
structure (smiles),measurement,setting,value
CC(C)C(=O)Nc1ccc(NC(=O)c2ccccn2)cn1,EC50,[1],0.44 µM (active)
same,EC50,HT-1080,> 50 µM (not active)
Cc1ccc(/C=C/C(=O)NCC2COc3ccccc3O2)o1 (configuration not stated),IC50,[2],> 80 µM (inactive)
same,AC50,[3],33.1 µM (active)
COc1cccc(/C=C/c2ccncc2)c1OC,IC50,Protein Wnt-3a,1.7 µM (active)
CCCCc1ccc(-c2nc(-c3ccncc3)no2)cc1,EC50,[1],60.6 µM (active)
same,EC50,HT-1080,> 50 µM (not active)
CCN1CCN(Cc2ccc(NC(=O)c3ccc(C)c(NC(=O)c4nccnc4N)c3)cc2C(F)(F)F)CC1,AC50,HEK293,0.528 µM (active)
CC(C)(C)c1ccc(CN2C3=NCCCN3c3ccccc32)cc1,EC50,[4],0.387 µM (active)
same,EC50,[5],> 60 µM (not active)
same,AC50,[6],0.836 µM (active)
same,AC50,[7],21.8 µM (active)
same,AC50,[8],0.978 µM (active)
same,IC50,Protein Wnt-3a,2.94 µM (active)
COC(=O)c1ccc(C(=O)N2CCCC(Nc3ccc(C(C)C)cc3)C2)nc1 (configuration not stated),IC50,Cysteine protease ATG4B,17.9 µM (active)
same,IC50,Phospholipase A2,12.3 µM (active)
Cc1ccc(CN2C(=O)N/C(=C\c3ccc(-c4ccc(C(=O)O)cc4C)o3)C2=O)cc1,CC50,[9],> 40 µM (active)
Cc1ccc(-c2csc(NC(=O)c3ccccc3F)c2C(=O)O)cc1,IC50,[2],> 80 µM (inactive)
same,IC50,[10],11.5 µM (active)
Cc1ccsc1-c1nc(CSCC(=O)N2CCN(c3ccccc3)CC2)c(C)o1,AC50,HEK293,225 µM (active)
COc1ccc2cc(-c3cc(C(=O)O)c4ccccc4n3)ccc2c1,CC50,[11],22.5 µM (active)
same,AC50,HEK293,1.05 µM (active)
same,IC50,cells [12],40.9 µM (active)
O=C(c1cnc(N2CCN(c3ccccn3)CC2)c2ccccc12)N1CCN(c2cccc(Cl)c2)CC1,AC50,INS1,6.14 µM (active)
same,AC50,[6],1.99 µM (active)
same,AC50,[7],59.9 µM (active)
same,AC50,[8],3.68 µM (active)
same,IC50,Protein Wnt-3a,7.02 µM (active)
COC(=O)C(C)N(C(=O)c1ccc(C(=O)c2ccccc2)cc1)c1c(C)cccc1C (configuration not stated),EC50,[13],> 260 µM (inactive)
same,IC50,Cysteine protease ATG4B,9.78 µM (active)
same,IC50,Phospholipase A2,8.13 µM (active)
Cc1ccc(S(=O)(=O)Nc2ccc3c(c2)C(=O)N([C@@H](C)CO)C[C@H](C)[C@H](CN(C)Cc2ccc(Cl)c(Cl)c2)O3)cc1,AC50,[14],5.67 µM (active)
C[C@@H]1CN([C@@H](C)CO)C(=O)c2cc(NC(=O)Nc3ccc(C(F)(F)F)cc3)ccc2O[C@@H]1CN(C)Cc1ccc(Cl)c(Cl)c1,AC50,[14],3.38 µM (active)
C[C@H]1CN([C@@H](C)CO)C(=O)c2cccc(NC(=O)c3nc4ccccc4s3)c2O[C@@H]1CN(C)S(=O)(=O)c1ccc(Cl)cc1,AC50,[14],1.8 µM (active)
C[C@H]1CN([C@@H](C)CO)C(=O)Cc2cc(NC(=O)Nc3ccccc3)ccc2O[C@H]1CN(C)Cc1ccc(C(F)(F)F)cc1,AC50,[14],3.26 µM (active)
O=C(Nc1ccccc1Cl)c1csc(-c2cccnc2)n1,CC50,[9],> 40 µM (active)
same,AC50,[15],0.493 µM (active)
Cc1[nH]n(-c2ccc(Cl)cc2)c(=O)c1N=Nc1cccnc1,CC50,[16],26.7 µM (active)
same,CC50,[17],> 20 µM (active)
same,CC50,[18],12.2 µM (active)
same,IC50,cells [19],1.78 µM (active)
Cc1ccc(C(=O)O/N=C2\CCCc3ccccc32)cc1,IC50,Cysteine protease ATG4B,8.65 µM (active)
same,IC50,Phospholipase A2,2.83 µM (active)
CCOc1ccc(/N=c2\cc(-c3ccc(OC)cc3)oc3ccccc23)cc1,CC50,[9],> 40 µM (active)
same,EC50,[4],2.64 µM (active)
same,EC50,[20],47.5 µM (active)
same,EC50,[5],> 60 µM (not active)
same,EC50,[21],60.6 µM (active)
COc1ccc2c3c([nH]c2c1)[C@H](CO)N(Cc1ccccn1)CC31CCN(Cc2cccc(F)c2)CC1,AC50,[22],1.12 µM (active)
same,AC50,[23],1.21 µM (active)
same,AC50,[24],1.48 µM (active)
same,AC50,[25],0.422 µM (active)
same,AC50,[26],> 39 µM (inactive)
same,AC50,[27],0.559 µM (active)
COc1ccc(-c2ccc([C@H]3[C@H](C#N)N(C(=O)c4cccnc4)[C@H]3CO)cc2)cc1,AC50,[22],1.15 µM (active)
same,AC50,[23],> 100 µM (inactive)
same,AC50,[24],1.25 µM (active)
same,AC50,[25],0.764 µM (active)
same,AC50,[26],> 42 µM (inactive)
same,AC50,[27],0.586 µM (active)
C/C=C/c1ccccc1[C@H]1[C@@H](C#N)N(c2nc(CC)cs2)[C@@H]1CO,AC50,[24],3.11 µM (active)
same,AC50,[26],21.4 µM (active)
COc1ccc2c3c([nH]c2c1)[C@@H](CO)N(Cc1ccccc1)CC31CCN(Cc2cncnc2)CC1,AC50,[22],1.27 µM (active)
same,AC50,[24],2.12 µM (active)
same,AC50,[25],0.929 µM (active)
same,AC50,[26],> 39 µM (inactive)
same,AC50,[27],0.871 µM (active)
